Reference: patent US10087165B2, “Fluoroquinolones and use thereof to treat bacterial infections” (UNIVERSITÉ PIERRE ET MARIE CURIE—PARIS 6 (UPMC), priority 2014, dated 2018)
Converted amounts (≈) assume the structure as drawn. Like-named read-outs stand apart in the source and are kept apart here.

Experiments:
M. tuberculosis H37Rv = assay: microbe, parasite or virus in culture; type: cell-based; conditions: for MIC: Mycobacterium tuberculosis
[1] = test system: M. tuberculosis H37Rv strain; assay: Minimal effective dosage in the murine TB model; type: in vivo, Balb/C/J female mice; parameters: Mice weight: unit not given here; conditions: for Survival: No. death: 10 mice
Procedure: Four-week-old Balb/C/J female mice were infected intravenously with 10^6 CFU of M. tuberculosis H37Rv strain. On the day following the infection (D1), 10 mice were sacrificed to determine the exact baseline values of spleen weight and CFU counts in the lungs. The remaining mice were allocated to the following treatment groups: an untreated negative control group for survival monitoring, a positive control group treated for 1 month with isoniazid (INH) 25 mg/kg/d, […] test groups were treated with Quin18 and Quin19 at increasing dosages (25 mg/kg/d; 50 mg/kg/d; 100 mg/kg/d; 150 mg/kg/d) given by oral gavage, and two additional test groups were treated intravenously with Quin18 25 mg/kg/d and 100 mg/kg/d. All the groups contained 10 mice and were treated from D1 to D28, 5 days a week. The parameters used for assessing the severity of infection and the effectiveness of treatments were survival rate, spleen weight, gross lung lesions and CFU counts in the lungs.
The minimal effective dosage was defined as the minimal dosage able to prevent mortality of the mice, spleen enlargement and the occurrence of gross lung lesions. CFU counts were considered to be a more precise way of determining the dose-ranging efficacy of Quin18 and Quin19.
Survival rates between groups were plotted on a Kaplan-Meier curve and compared using the log-rank test.

[2] = Acute toxicity in healthy female CD-1 mice after a single oral treatment; type: in vivo; conditions: for Macroscopic autopsy: Observations: sacrifice at end of study
Procedure: The aim of this study was to evaluate the acute toxicity of two new compounds (Quin 18 and Quin 19) in healthy female CD-1 after a single oral treatment at D0.
Toxicity of treatment was evaluated by monitoring of animals (general signs of pharmacologic and toxicity effects, morbidity, mortality and evident signs of toxicity, as well as twice-weekly monitoring for clinical signs and body weight) until the end of the experiment (D14). At the end of the experiment, animals were sacrificed and macroscopic autopsy was performed.
Mice of each group were administered by per os (PO) injection at 10 ml/kg according to the standard operating procedure No. TEC-078. The recommended volume for per os (PO) administration in mice is 10 ml/kg.
Morbidity, mortality and evident signs of toxicity of mice were considered daily from D0 until the end of the experiment (D14 or D15).
Monitoring of mice for detailed behavioral and clinical observations was performed twice a week from D0 until the end of the experiment (D14 or D15) according to the standard operating procedures No. TEC-192.
Body weight of mice was monitored at D1, D2 and then twice a week until the end of the experiment (D14 or D15) according to the standard operating procedures No. TEC-108. Weight loss was assessed against the starting weight of each mouse at D0.
During the course of the experiment, animals were sacrificed if any of the following occurs: • Signs of suffering (cachexia, weakening, difficulty to move or to eat), • Compound toxicity (hunching, convulsions), • 25% body weight loss on any day. Sacrifice of Animals
At D14 or D15, animals were be sacrificed by CO2 inhalation and a macroscopic autopsy was performed.

[3] = target: M. tuberculosis DNA gyrase (Mycobacterium tuberculosis, UniProt P9WG45+P9WG47); assay: biochemical
Sequence of M. tuberculosis DNA gyrase (P9WG47 whole entry): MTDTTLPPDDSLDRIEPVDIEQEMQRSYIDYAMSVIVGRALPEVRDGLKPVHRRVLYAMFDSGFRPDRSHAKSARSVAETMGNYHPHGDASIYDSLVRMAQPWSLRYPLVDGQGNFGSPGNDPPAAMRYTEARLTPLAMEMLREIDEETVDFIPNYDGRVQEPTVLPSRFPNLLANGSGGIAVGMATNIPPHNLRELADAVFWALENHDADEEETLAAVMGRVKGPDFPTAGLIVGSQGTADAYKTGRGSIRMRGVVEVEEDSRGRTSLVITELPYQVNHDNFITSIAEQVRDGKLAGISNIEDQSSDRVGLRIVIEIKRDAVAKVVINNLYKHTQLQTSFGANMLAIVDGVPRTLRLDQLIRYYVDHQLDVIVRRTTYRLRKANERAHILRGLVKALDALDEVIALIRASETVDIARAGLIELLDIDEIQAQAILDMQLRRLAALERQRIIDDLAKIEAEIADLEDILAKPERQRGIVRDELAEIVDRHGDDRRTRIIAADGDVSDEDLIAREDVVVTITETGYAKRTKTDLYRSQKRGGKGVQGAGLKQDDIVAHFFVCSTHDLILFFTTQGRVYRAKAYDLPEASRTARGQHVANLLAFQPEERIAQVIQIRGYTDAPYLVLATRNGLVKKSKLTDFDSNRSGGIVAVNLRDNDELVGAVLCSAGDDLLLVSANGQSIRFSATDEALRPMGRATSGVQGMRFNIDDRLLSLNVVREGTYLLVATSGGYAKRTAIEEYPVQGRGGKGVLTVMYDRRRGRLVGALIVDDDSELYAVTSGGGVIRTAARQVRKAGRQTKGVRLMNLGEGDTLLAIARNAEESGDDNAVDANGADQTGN
Sequence of M. tuberculosis DNA gyrase (P9WG45 whole entry): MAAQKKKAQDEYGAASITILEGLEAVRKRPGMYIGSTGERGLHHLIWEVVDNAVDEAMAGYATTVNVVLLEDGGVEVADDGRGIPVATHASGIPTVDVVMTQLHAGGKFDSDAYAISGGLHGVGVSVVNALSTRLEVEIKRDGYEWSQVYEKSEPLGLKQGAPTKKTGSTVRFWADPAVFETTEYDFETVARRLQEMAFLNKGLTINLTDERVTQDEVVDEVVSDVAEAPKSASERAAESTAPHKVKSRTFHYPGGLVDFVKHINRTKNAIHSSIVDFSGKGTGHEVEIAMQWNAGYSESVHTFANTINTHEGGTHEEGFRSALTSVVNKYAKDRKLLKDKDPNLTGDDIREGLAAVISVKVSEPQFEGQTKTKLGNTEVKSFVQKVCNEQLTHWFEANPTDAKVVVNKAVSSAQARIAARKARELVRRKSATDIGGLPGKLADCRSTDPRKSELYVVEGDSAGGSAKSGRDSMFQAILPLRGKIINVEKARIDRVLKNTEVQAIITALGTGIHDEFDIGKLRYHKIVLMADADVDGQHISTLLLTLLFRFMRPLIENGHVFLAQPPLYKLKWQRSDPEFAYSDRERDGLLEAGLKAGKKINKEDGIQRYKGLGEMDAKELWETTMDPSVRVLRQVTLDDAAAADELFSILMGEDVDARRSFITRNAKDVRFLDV

CCCCCCCCN1CCN(c2c(F)cc3c(=O)c(C(=O)O)cn(C4CC4)c3c2OC)CC1 [Quin 18, 1-cyclopropyl-6-fluoro-8-methoxy-7-(4-octylpiperazin-1-yl)-4-oxo-1,4-dihydroquinoline-3-carboxylic acid]
antibacterial activity against wild-type M. tuberculosis strain (in words) (M. tuberculosis H37Rv; H37Rv): high antibacterial activity
MIC (M. tuberculosis H37Rv; H37RV, Table 3, read-out: MIC M. tuberculosis H37Rv): 0.12 µM (≈ 0.0568 µg/mL)
MIC (M. tuberculosis H37Rv; H37Rv, Table 2, read-out: MIC (M. tuberculosis) WT): ≤ 0.12 µM
Mice weight ([1]; 25 mg/kg/j, Gavage): 19.4 ± 0.9
Spleen weight ([1]; 25 mg/kg/j, Gavage): 258.6 ± 155 mg
Survival: No. death ([1]; 25 mg/kg/j, Gavage, D1 to D28, 5 days a week): 0
Mice weight ([1]; 25 mg/kg/j, Intravenously): 20 ± 1
Spleen weight ([1]; 25 mg/kg/j, Intravenously): 391 ± 89.7 mg
Survival: No. death ([1]; 25 mg/kg/j, Intravenously): 0
Mice weight ([1]; 50 mg/kg/j, Gavage): 20 ± 1.6
Spleen weight ([1]; 50 mg/kg/j, Gavage): 231 ± 63.3 mg
Survival: No. death ([1]; 50 mg/kg/j, Gavage): 0
Mice weight ([1]; 100 mg/kg/j, Gavage): 19.4 ± 1.5
Spleen weight ([1]; 100 mg/kg/j, Gavage): 210 ± 104.1 mg
Survival: No. death ([1]; 100 mg/kg/j, Gavage): 0
Mice weight ([1]; 100 mg/kg/j, Intravenously): 20 ± 1.1
Spleen weight ([1]; 100 mg/kg/j, Intravenously): 400 ± 7.7 mg
Survival: No. death ([1]; 100 mg/kg/j, Intravenously): 1
Mice weight ([1]; 150 mg/kg/j, Gavage): 20.3 ± 0.8
Spleen weight ([1]; 150 mg/kg/j, Gavage): 239.8 ± 129.3 mg
Survival: No. death ([1]; 150 mg/kg/j, Gavage): 0
Efficacy in a mouse model of tuberculosis (in words) ([1]; given orally): outstanding efficacy
Spleen weights compared with untreated group (in words) ([1]; treated intravenously): spleen weights similar than the untreated group
Survival compared with untreated group (in words) ([1]; whatever the dosage (25, 50, 100 and 150 mg/kg/d) and the administration route): statistically superior to untreated group
Loss of body weight (in words) ([2]; Group A1: 100 mg/kg PO Q1Dx1): did not exhibited any loss of body weight
Tolerance (in words) ([2]; Group A1: 100 mg/kg PO Q1Dx1, polysorbate 80 0.4%, with sonication): well tolerated
Mean body weight (MBW) ([2]; Group A1: 100 mg/kg PO Q1Dx1, with sonication, D1): 31.33 ± 0.8 g
Mean body weight (MBW) ([2]; Group A1: 100 mg/kg PO Q1Dx1, with sonication, D2): 31.2 ± 0.7 g
Mean body weight (MBW) ([2]; Group A1: 100 mg/kg PO Q1Dx1, with sonication, D3): 30.3 ± 0.53 g
Mean body weight (MBW) ([2]; Group A1: 100 mg/kg PO Q1Dx1, with sonication, D4): 30.47 ± 0.78 g
Mean body weight (MBW) ([2]; Group A1: 100 mg/kg PO Q1Dx1, with sonication, D7): 31.63 ± 0.49 g
Mean body weight (MBW) ([2]; Group A1: 100 mg/kg PO Q1Dx1, with sonication, D11): 32.3 ± 1.37 g
Mean body weight (MBW) ([2]; Group A1: 100 mg/kg PO Q1Dx1, with sonication, D14): 31.77 ± 0.76 g
Macroscopic autopsy: Observations ([2]; Group A1: 100 mg/kg PO Q1Dx1): NTR
Mean body weight (MBW) ([2]; Group A1: polysorbate 80 0.4%, 10 mg/ml with sonication, 100 mg/kg PO Q1Dx1, D0, 100 mg/kg): 31.5 ± 1.48 g
Loss of body weight (in words) ([2]; Group A2: 200 mg/kg PO Q1Dx1): did not exhibited any loss of body weight
Tolerance (in words) ([2]; Group A2: 200 mg/kg PO Q1Dx1, polysorbate 80 0.4%, with sonication): well tolerated
Mean body weight (MBW) ([2]; Group A2: 200 mg/kg PO Q1Dx1, with sonication, D1): 31.13 ± 1.01 g
Mean body weight (MBW) ([2]; Group A2: 200 mg/kg PO Q1Dx1, with sonication, D2): 30.27 ± 0.74 g
Mean body weight (MBW) ([2]; Group A2: 200 mg/kg PO Q1Dx1, with sonication, D3): 30.7 ± 0.44 g
Mean body weight (MBW) ([2]; Group A2: 200 mg/kg PO Q1Dx1, with sonication, D7): 31.67 ± 0.49 g
Mean body weight (MBW) ([2]; Group A2: 200 mg/kg PO Q1Dx1, with sonication, D10): 31.73 ± 0.95 g
Mean body weight (MBW) ([2]; Group A2: 200 mg/kg PO Q1Dx1, with sonication, D14): 32.6 ± 1.35 g
Macroscopic autopsy: Observations ([2]; Group A2: 200 mg/kg PO Q1Dx1): NTR
Mean body weight (MBW) ([2]; Group A2: polysorbate 80 0.4%, 20 mg/ml with sonication, 200 mg/kg PO Q1Dx1, D0, 200 mg/kg): 30.2 ± 1.15 g
Loss of body weight (in words) ([2]; Group A3: 100 mg/kg PO Q1Dx1): did not exhibited any loss of body weight
Tolerance (in words) ([2]; Group A3: 100 mg/kg PO Q1Dx1, polysorbate 80 0.4%): well tolerated
Mean body weight (MBW) ([2]; Group A3: 100 mg/kg PO Q1Dx1, without sonication, D1): 29.8 ± 1.05 g
Mean body weight (MBW) ([2]; Group A3: 100 mg/kg PO Q1Dx1, without sonication, D2): 30.4 ± 1.25 g
Mean body weight (MBW) ([2]; Group A3: 100 mg/kg PO Q1Dx1, without sonication, D4): 30 ± 1.01 g
Mean body weight (MBW) ([2]; Group A3: 100 mg/kg PO Q1Dx1, without sonication, D7): 31.33 ± 0.74 g
Mean body weight (MBW) ([2]; Group A3: 100 mg/kg PO Q1Dx1, without sonication, D11): 32.3 ± 2.02 g
Mean body weight (MBW) ([2]; Group A3: 100 mg/kg PO Q1Dx1, without sonication, D15): 32.17 ± 1.94 g
Macroscopic autopsy: Observations ([2]; Group A3: 100 mg/kg PO Q1Dx1): NTR
Mean body weight (MBW) ([2]; Group A3: polysorbate 80 0.4%, 10 mg/ml without sonication, 100 mg/kg PO Q1Dx1, D0, 100 mg/kg): 29.9 ± 1.25 g
Loss of body weight (in words) ([2]; Group A4: 200 mg/kg PO): did not exhibited any loss of body weight
Mean body weight (MBW) ([2]; Group A4: 200 mg/kg PO 2Q1Dx1, without sonication, D1): 29.73 ± 1.22 g
Mean body weight (MBW) ([2]; Group A4: 200 mg/kg PO 2Q1Dx1, without sonication, D2): 30.2 ± 1.31 g
Mean body weight (MBW) ([2]; Group A4: 200 mg/kg PO 2Q1Dx1, without sonication, D5): 30 ± 1.45 g
Mean body weight (MBW) ([2]; Group A4: 200 mg/kg PO 2Q1Dx1, without sonication, D9): 30.93 ± 3.04 g
Mean body weight (MBW) ([2]; Group A4: 200 mg/kg PO 2Q1Dx1, without sonication, D13): 31.73 ± 2.64 g
Mean body weight (MBW) ([2]; Group A4: 200 mg/kg PO 2Q1Dx1, without sonication, D14): 31.33 ± 1.63 g
Macroscopic autopsy: Observations ([2]; Group A4: 200 mg/kg PO 2Q1Dx1): NTR
Tolerance (in words) ([2]; Group A4: 200 mg/kg PO, polysorbate 80 0.4%): well tolerated
Mean body weight (MBW) ([2]; Group A4: polysorbate 80 0.4%, 10 mg/ml without sonication, 200 mg/kg PO 2Q1Dx1 (2 hours between the 2 injections), D0, 200 mg/kg): 29.5 ± 0.89 g
Autopsy, macroscopic observations (in words) ([2]; all treated groups): No particular sign was observed
Dose up to which well tolerated (maximal solubility) ([2]; in polysorbate 80 0.4%, PO, female mice): up to 200 mg/kg
Signs of toxicity at the dose levels tested (in words) ([2]; mice): no signs of toxicity
IC50 [3]: 195 µM
